Results from US20060269924A1, “Modulation of telomere-initiated cell signaling” (TRUSTEES OF BOSTON UNIVERSITY, priority 2003, published 2006).
{P} = phosphate

Legend:
[1] = tested on: fibroblasts; experiment: Degradation of the telomere 3′ overhang in fibroblasts; assay type: cell-based; conditions: up to 1 week (data not shown)
[2] = tested on: HT-1080 fibrosarcoma cells; experiment: BrdU incorporation assay, HT-1080 cells; assay type: cell-based, human
Method: FIG. 13a: Exposure to T-oligo increases SA-β-Gal activity. HT-1080 cells were treated for 4 days with diluent alone or 40 μM T-oligo or the complementary control oligo, then stained and assayed for SA-β-Gal activity. FIG. 13b: Quantitative analysis of SA-β-Gal positive cells. Cells expressing SA-β-Gal activity were counted and presented as percentage of total cells in the cultures. Averages and standard deviations were calculated from 3 representative fields from each of 3 independent experiments. FIG. 13c: Effect of T-oligo on cell proliferation. Cells were treated for 4 days as in FIG. 12 and assayed for DNA synthesis by BrdU incorporation. FIG. 13d: Quantitative analysis of BrdU incorporation. Dark black nuclei indicate BrdU incorporated into nuclear DNA. BrdU positive cells were calculated and presented as percentage of total cells in the cultures. Averages and standard deviations were calculated from 3 representative fields from each of 3 independent experiments. FIG. 13e: Effect of T-oligo on pRb phosphorylation. Cells were treated as in FIG. 13a and were then collected for protein analysis by western blot using 30 μg total protein and probed for pRb-ser780*, ser795* and ser807/811* (pRb phosphorylated at serine 780, serine 795 and serine 807/811 respectively). Lanes D, T and C contain protein samples from cells treated with diluent, T-oligo and complementary oligo respectively. β-actin was used as a loading control.
Parallel cultures were treated as described in FIG. 13a. Cells were then washed once with PBS and refed with complete medium without additional treatment for 24 hours or 48 hours. FIG. 14a: SA-β-Gal activity. […]
HT-1080 fibrosarcoma cells cultured on Permanox chamber slides were treated with diluent, 40 μM T-oligo or 40 μM complementary oligo for 4 days and DNA synthesis was assayed using 5-bromo-2′-deoxy-uridine (BrdU) Labeling and Detection Kit II (Roche Molecular Biochemicals, Indianapolis, Ind.) following the protocol supplied by the manufacturer. […] After incubation with anti-mouse-Ig-alkaline phosphatase, the color reaction was detected by light microscopy. […]

[3] = tested on: Saos-2 cells; experiment: FACS analysis of Saos-2 cells; assay type: cell-based; conditions: Saos-2 (telomerase negative), 40 μM, 48 hours
Method: FIG. 18a: FACS profiles from one representative experiment of three with the percentage and standard deviations of cells in each phase of the cell cycle was calculated from triplicate cultures of each condition. FIG. 18b: Western blots with an antibody specific for phospho-p95/Nbs1. Lanes 1, 2 and 3 contained protein from cells treated with diluent, 11mer-1 or 11mer-2, respectively. Control cells (3 hours) were irradiated with 10 Gy of IR (+), or were sham irradiated (−).
Saos-2 cells are an osteosarcoma cell line that is reportedly telomerase negative and maintain telomeres by the ALT pathway. Saos-2 cell lines were treated with either diluent or 40 μM of the indicated oligonucleotide and cells were collected after 48 hours for FACS analysis. […] The results that the effect of the T-oligo in the telomerase negative cells is identical to the response in telomerase positive malignant cell lines.

[4] = tested on: Jurkat cells; experiment: FACS analysis of propidium iodide stained Jurkat cells (cell cycle, sub-G0/G1 apoptosis); assay type: cell-based, human
Method: FIGS. 1A-1H show FACS analysis of propidium iodide stained Jurkat cells (immortalized T lymphocytes), treated with diluent (FIGS. 1A and 1E); 40 μM 11mer-1 pGTTAGGGTTAG (SEQ ID NO: 2) (FIGS. 1B and 1F); 40 μM 11mer-2 pCTAACCCTAAC (SEQ ID NO: 3) (FIGS. 1C and […]); 40 μM 11mer-3 pGATCGATCGAT (SEQ ID NO: 4) (FIGS. 1D and 1H). Jurkat cells were treated with the stated reagents for 48 hours before analysis (FIGS. 1A-1D) or 72 hours (FIGS. 1E-1H).
FIGS. 2A-2F are profiles showing the results of fluorescence activated cell sorting, for the following additions to the cells: FIG. 2A, diluent; FIG. 2B, 0.4 μM 11mer-1; FIG. 2C, 0.4 μM 11mer-1-S; FIG. 2D, diluent; FIG. 2E, 40 μM 11mer-1; FIG. 2F, 40 μM 11 mer-1-S.
Oligonucleotides homologous to the telomere overhang repeat sequence (TTAGGG; SEQ ID NO: 1), sequence (11mer-1: pGTTAGGGTTAG; SEQ ID NO: 2), complementary to this sequence (11mer-2: pCTAACCCTAAC; SEQ ID NO: 3) and unrelated to the telomere sequence (11mer-3: pGATCGATCGAT; SEQ ID NO: 4) were added to cultures of Jurkat cells, a line of human T cells reported to undergo apoptosis in response to telomere disruption. Within′ 48 hours, 50% of the cells treated with 40 μM of SEQ ID NO: 5 had accumulated in the S phase, compared to 25-30% for control cells (p<0.0003, non-paired t-test; see FIGS. 1A-1D), and by 72 hours, 13% of these cells were apoptotic as determined by a sub-G0/G1 DNA content, compared to 2-3% of controls (p<0.007, non-paired t-test; see FIGS. 1E-1H). At 96 hours, 20±3% of the 11mer-1 treated cells were apoptotic compared with 3-5% of controls (p<0.0001, non-paired t-test). To exclude preferential uptake of the 11mer-1 as an explanation of its singular effects, Jurkat cells were treated with oligonucleotides labeled on the 3′ end with fluorescein phosphoramidite, then subjected to confocal-microscopy and FACS analysis. The fluorescence intensity of the cells was the same after all treatments at 4 hours and 24 hours.
Cultures of Jurkat human T cells were treated with either diluent, 11mer-1 ([…]) or the phosphorothioate 11mer-1 (11mer-1-S) for 96 hours, then collected and processed for FACS analysis. Two concentrations of the oligonucleotides were tested, 0.4 μM (FIGS. 2A-2C) and 40 μM (FIGS. 2D-2F).

pGTTAGGGTTAG (DNA, 5' {P}, backbone not given here; listed as Homo sapiens) [Oligonucleotide 11mer-1]
degradation of the telomere 3′ overhang [1]: does not result in degradation | DNA synthesis (BrdU) after removal of oligo ([2]; HT-1080, 4 days 40 μM, then 1 and 2 days fresh medium without oligonucleotide): did not resume DNA synthesis | BrdU incorporation (BrdU positive cells) ([2]; HT-1080 cells, 40 μM, 4 days): 7±2% | S phase arrest [3]: causes an S phase arrest | effect on exponentially growing cell cycle profile ([4]; 0.4 μM, 96 hours): neither of the oligonucleotides affected | cells accumulated in the S phase ([4]; 40 μM, 48 hours): 50% | apoptotic cells (sub-G0/G1 DNA content) ([4]; 40 μM, 72 hours): 13% | apoptosis (sub-G0/G1 peak) ([4]; 40 μM, 96 hours): induced extensive apoptosis | apoptotic cells ([4]; 96 hours): 20±3%
